Reference: publication PMC7990224 (PLoS Pathogens, 2021)
Where two headings read alike, the source gives them in different places.

Tests used:
SARS-CoV-2 trVLP = type: cell-based
Caco-2-N cells = experiment: in vitro; type: cell-based, human; settings: Fig 6B-6E, at tested concentrations, CellTiter-Glo
Procedure: (§1) Caco-2-N cells were seeded into 96-well plate (1×10^3 cells/well). After 12 hours, cells were treated with drugs with different concentrations. Cell viability was measured two days post treatment with CellTiter-Glo Luminescent Cell Viability Assay kit (Promega, G7570) following standard protocol. In brief, cells in 100 μl culture medium were added with 100 μl CellTiter-Glo reagent. After 15 minutes, luminescence was recorded with GloMax (Promega). CC50 was determined using logarithmic interpolation using GraphPad Prism software version 7.0.

in vitro = type: cell-based, human; settings: human, n.d. = not detected
Procedure: as §1

SARS-CoV-2 GFP/ΔN trVLP = type: cell-based
[1] = tested on: SARS-CoV-2 strain nCoV-SH01; experiment: microbe, parasite or virus in culture; type: cell-based
HCoV-OC43 = settings: cited from earlier work
SARS-CoV-2 = settings: cited from earlier work
[2] = tested on: avian infectious bronchitis virus (IBV); settings: cited from earlier work
[3] = Severe acute respiratory syndrome coronavirus 2, A549-ACE2

For `[Cl-].[Li+]` [LiCl], which “effect on GFP expression (trVLP production)” value (SARS-CoV-2 trVLP) is on record?
Its value is “inhibit GFP expression in a dose-dependent manner”.

Which results are given for `Cc1cccc(C)c1OCC(=O)N[C@@H](Cc1ccccc1)[C@@H](O)C[C@H](Cc1ccccc1)NC(=O)[C@H](C(C)C)N1CCCNC1=O` [Lopinavir]?
cytotoxic effect (Caco-2-N cells): serious cytotoxicity at the IC50 concentration; CC50 (in vitro; Fig 6F, CellTiter-Glo, two days treatment): 19.1 µM; Selectivity Index (SI) (SARS-CoV-2 GFP/ΔN trVLP): 2.18

With `O[C@H]1[C@H]2c3cc4c(cc3CN3CCC(=C[C@@H]1O)[C@H]23)OCO4` [Lycorine chloride] as the molecule, how does the IC50 [1, 3] read?
Its IC50 is 0.773 µM.

What about the “inhibition of HCoV-OC43 infection” value (HCoV-OC43) of the same molecule?
The value was “inhibit HCoV-OC43 infection”.

Which IC50 ([1]; read-out: IC50) does the source give for `CO[C@@H]1C[C@@H](C[C@H]2CC[C@H](C)[C@H]([C@@H](C)C(=O)O)O2)O[C@]2(O[C@](C)([C@H]3CC[C@@](C)([C@@H]4O[C@@H]([C@H]5O[C@@](O)(CO)[C@H](C)C[C@@H]5C)C[C@@H]4C)O3)C[C@H]2C)[C@@H]1C` [Nigericin sodium] here?
Its IC50 is 11.2 µM.

With `CCC(CC)COC(=O)[C@H](C)N[P@](=O)(OC[C@H]1O[C@@](C#N)(c2ccc3c(N)ncnn23)[C@H](O)[C@@H]1O)Oc1ccccc1` [Remdesivir] as the molecule, how does the cytotoxic effect (Caco-2-N cells) read?
Its cytotoxic effect is “no apparent cytotoxic effect”.

With `CC(C)c1nc(CN(C)C(=O)N[C@H](C(=O)N[C@@H](Cc2ccccc2)C[C@H](O)[C@H](Cc2ccccc2)NC(=O)OCc2cncs2)C(C)C)cs1` [Ritonavir] as the molecule, how does the cytotoxic effect (Caco-2-N cells) read?
The cytotoxic effect was “serious cytotoxicity at the IC50 concentration”.

For `Cn1cc(C2=C(c3ccc(Cl)cc3Cl)C(=O)NC2=O)c2ccccc21` [SB216763], which “effect on GFP expression (trVLP production)” value (SARS-CoV-2 trVLP) is on record?
The value was “inhibit GFP expression in a dose-dependent manner”.

Which “selectivity index (SI = CC50/IC50)” value [1] does the source give for `CC[C@@H](C(=O)[C@@H](C)[C@@H](O)[C@H](C)[C@@H]1O[C@@H]([C@@H](CC)C(=O)O)CC[C@@H]1C)[C@H]1O[C@]2(C=C[C@@H](O)[C@]3(CC[C@@](C)([C@H]4CC[C@](O)(CC)[C@H](C)O4)O3)O2)[C@H](C)C[C@@H]1C` [Salinomycin] here?
The value was 7.13.

What about the IC50 [1, 3] of the same molecule?
Its IC50 is 2.84 µM.

And the “inhibition of HCoV-OC43 infection” value (HCoV-OC43)?
The value was “inhibit HCoV-OC43 infection”.

And the CC50 (in vitro; Fig 7G hit compounds, cell line for this CC50 not stated)?
Its CC50 is 20.2 µM.

What about the “antiviral activity against SARS-CoV-2 infection in vitro” value (SARS-CoV-2) of the same molecule?
Its value is “potent antiviral activity”.

Which cytotoxic effect (Caco-2-N cells) does the source give for GC376 here?
Its cytotoxic effect is “no apparent cytotoxic effect”.

What does the source list for Monensin sodium?
IC50 ([1]; read-out: IC50): 0.632 µM; inhibition of HCoV-OC43 infection (HCoV-OC43): inhibit HCoV-OC43 infection; inhibition of IBV infection [2]: blocks avian infectious bronchitis virus (IBV) infection

With Tubeimoside I as the molecule, how does the IC50 ([1]; read-out: IC50) read?
The IC50 was 1.37 µM.
